Data on one substance can be found in patent publication US8357377B2, “Cyclodextrin-based materials, compositions and uses related thereto” (priority 2002, dated 2013).

The series is described as follows: Rat PVA sponge model, morphological analysis (Masson's Trichrome sections). Also on record: species or system Harlan Sprague-Dawley rats. The following applies: in vivo. As for the experimental part:
Six small incisions (0.5 cm) were performed and polyvinyl alcohol (PVA, M-PACTO®) sponges were subcutaneously implanted on the ventral side of male Harlan Sprague-Dawley rats.
Four days after implantation, test and control materials were diluted with vPBS and liquid collagen (Cohesion Technologies®) or 58 kD Cyclodextrin (CD)-Adamantane matrix as described above and injected into PVA sponges. Final collagen formulation was 1.8 mg/mL, pHed with NaOH, and brought up to volume with vPBS. Final 58 kD Cyclodextrin (CD)-Adamantane matrix formulation was 100 mg/mL. 200 μL total volume of test reagent was delivered to each sponge. Animals were sacrificed and sponges were removed 2 days after injections. Sponges were cut into three pieces and the majority of the sponge (˜70-80%) was frozen in liquid nitrogen and stored at −80° C. for QPCR and QRT-PCR analysis. A small portion of the sponge was fixed in 4% PFA at 4° C. for 18 hours, paraffin embedded, and sectioned (5 μm). Sections were stained using Masson's Trichrome (cells=black, vasculature=red, and collagen=blue) and Hematoxylin-Eosin methods. Tissue sections were analyzed microscopically for gross histology by two separate investigators.
5 μm, Masson's Trichrome stained paraffin sections were analyzed by two separate observers. Sponge characteristics were qualitatively evaluated by the following criteria: Minimal<Light<Moderate<Heavy<Severe for all categories except Capsule Size. The following criteria were used for evaluation of Capsule Size: Thin<Moderate<Thick<Very Thick.

As to Collagen, the “Capsule Size” value is reported as “Thin”, the “Immune Response” value was “Minimal” and the “Immune response (gross histological examination)” value was “minimal immune response”.
